Assay results as given in US20240228469A1, “PCSK9 INHIBITORS AND METHODS OF USE THEREOF” (AstraZeneca AB, priority 2022, published 2024).

Legend:
[1] = molecular target: T1, potassium ion channel hERG (Homo sapiens, UniProt Q12809); experiment: Assay 5 hERG assay (patch clamp, CHO cells over-expressing hERG); type: cell-based; details: SyncroPatch 384PE, room temperature, geometric mean, read-out: Assay 5 (hERG Hu CHO if EPh CR-Syncro) GMean IC50
T1 construct: expressed in transfected cells; host or cells: Chinese hamster ovary K1 (CHO)
Description: This assay (human Ether-d-go-go-Related Gene) measures activity of the compounds at the potassium ion channel hERG (human Ether-d-go-go-Related Gene).
Experiments were performed on the SyncroPatch 384PE high throughput patch clamp platform at room temperature and medium resistance chips with 4 patch holes per site. Chinese hamster ovary K1 (CHO) cell lines over-expressing the ion channel of choice (hERG) were used in assay-ready format and kept in liquid nitrogen or were used from live culture. Cells were either thawed and diluted in HBSS or were detached from flasks and resuspended in HBSS. HBSS comprised 140 mM NaCl, 4 mM KCl, 10 mM HEPES and 5 mM Glucose (pH7.4). The internal patch clamp solution was KF 120 mM, KCl 20 mM, HEPES 10 mM, EGTA 10 mM, and 25 PM Escin (pH 7.2). After the sealing process was complete, the external solution was exchanged for external patch clamp solution comprising NaCl 80 mM, KCl 4 mM, HEPES 10 mM, CaCl2 2 mM, MgCl2 1 mM, glucose 5 mM, and NMDG 60 mM (pH 7.4). All solutions were stored at room temperature, except Escin, which was stored at 4° C. All test compounds were dispensed in greiner-bio 384 well plates and tested in a 6 point cumulative assay (final DMSO concentration 0.33%). Only wells that passed previously agreed acceptance criteria for this platform were used in this analysis (30 MegaOhm seal resistance, Z prime >0.4 and current size >0.2 nA). […]

[2] = molecular target: PCSK9 (Homo sapiens, UniProt Q8NBP7, G670E/V474I); experiment: biochemical
[3] = molecular target: GSK3β (Glycogen synthase kinase-3 beta) (Homo sapiens, UniProt P49841); experiment: Assay 6 GSK3β assay (ThermoFisher Z-Lyte FRET); type: biochemical; details: ATP Conc: 10 μM, geometric mean; read-out: Assay 6 (GSK3β FRET-Z-Lyte Cr) GMean IC50
Description: This assay measures the activity of the compounds at GSK33 (Glycogen synthase kinase-3 beta).
The test compounds were screened in 1% DMSO (final) in the well. For 10 point titrations, 3-fold serial dilutions are conducted from the starting concentration of 10 PM.
Bar-coded Corning, low volume NBS, black 384-well plate • 1. 2.5 μL—4× Test Compound or 100 nL 100× plus 2.4 μL kinase buffer • 2. 5 μL—2× Peptide/Kinase Mixture • 3. 2.5 μL—4×ATP Solution • 4. 30-second plate shake • 5. 60-minute Kinase Reaction incubation at room temperature • 6. 5 μL—Development Reagent Solution • 7. 30-second plate shake • 8. 60-minute Development Reaction incubation at room temperature • 9. Read on fluorescence plate reader and analyse the data
In step 2, the 2×GSK3β (GSK3 beta)/Ser/Thr (Glycogen synthase kinase-3 beta/Serine/Threonine) 09 mixture is prepared in 50 mM HEPES (4-(2-hydroxyethyl)-1-piperazineethanesulfonic acid) pH 7.5, 0.01% BRIJ-35, 10 mM MgCl2, 1 mM EGTA (egtazic acid). The final 10 μL Kinase Reaction consists of 0.22-0.92 ng GSK3β (GSK3 beta) and 2 PM Ser/Thr 09 in 50 mM HEPES pH 7.5, 0.01% BRIJ-35, 10 mM MgCl2, 1 mM EGTA.
In step 3 the ATP Solution is diluted to a 4× working concentration in Kinase Buffer (50 mM HEPES pH 7.5, 0.01% BRIJ-35, 10 mM MgCl2, 1 mM EGTA).
In Step 6 the Development Reagent is diluted 1:512 in Development Buffer (10× Novel PKC Lipid Mix: 2 mg/mL Phosphatidyl Serine, 0.2 mg/mL DAG in 20 mM HEPES, pH 7.4, 0.3% CHAPS).
SelectScreen® Kinase Profiling Service uses XLfit from IDBS. The dose response curve is curve fit to model number 205 (sigmoidal dose-response model).

GSK3β (Glycogen synthase kinase-3 beta), sequence (P49841 whole entry): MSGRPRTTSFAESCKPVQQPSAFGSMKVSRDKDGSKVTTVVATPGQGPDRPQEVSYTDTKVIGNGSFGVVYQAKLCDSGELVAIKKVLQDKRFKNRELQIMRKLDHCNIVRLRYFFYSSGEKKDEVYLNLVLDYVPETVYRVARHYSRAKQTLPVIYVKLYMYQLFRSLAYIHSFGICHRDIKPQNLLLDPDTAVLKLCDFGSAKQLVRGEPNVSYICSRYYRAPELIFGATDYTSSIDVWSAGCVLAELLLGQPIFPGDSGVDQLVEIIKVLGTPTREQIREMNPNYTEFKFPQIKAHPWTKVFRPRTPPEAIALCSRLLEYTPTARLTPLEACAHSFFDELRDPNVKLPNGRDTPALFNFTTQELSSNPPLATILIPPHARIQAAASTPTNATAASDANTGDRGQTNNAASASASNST
T1 sequence (Q12809 whole entry): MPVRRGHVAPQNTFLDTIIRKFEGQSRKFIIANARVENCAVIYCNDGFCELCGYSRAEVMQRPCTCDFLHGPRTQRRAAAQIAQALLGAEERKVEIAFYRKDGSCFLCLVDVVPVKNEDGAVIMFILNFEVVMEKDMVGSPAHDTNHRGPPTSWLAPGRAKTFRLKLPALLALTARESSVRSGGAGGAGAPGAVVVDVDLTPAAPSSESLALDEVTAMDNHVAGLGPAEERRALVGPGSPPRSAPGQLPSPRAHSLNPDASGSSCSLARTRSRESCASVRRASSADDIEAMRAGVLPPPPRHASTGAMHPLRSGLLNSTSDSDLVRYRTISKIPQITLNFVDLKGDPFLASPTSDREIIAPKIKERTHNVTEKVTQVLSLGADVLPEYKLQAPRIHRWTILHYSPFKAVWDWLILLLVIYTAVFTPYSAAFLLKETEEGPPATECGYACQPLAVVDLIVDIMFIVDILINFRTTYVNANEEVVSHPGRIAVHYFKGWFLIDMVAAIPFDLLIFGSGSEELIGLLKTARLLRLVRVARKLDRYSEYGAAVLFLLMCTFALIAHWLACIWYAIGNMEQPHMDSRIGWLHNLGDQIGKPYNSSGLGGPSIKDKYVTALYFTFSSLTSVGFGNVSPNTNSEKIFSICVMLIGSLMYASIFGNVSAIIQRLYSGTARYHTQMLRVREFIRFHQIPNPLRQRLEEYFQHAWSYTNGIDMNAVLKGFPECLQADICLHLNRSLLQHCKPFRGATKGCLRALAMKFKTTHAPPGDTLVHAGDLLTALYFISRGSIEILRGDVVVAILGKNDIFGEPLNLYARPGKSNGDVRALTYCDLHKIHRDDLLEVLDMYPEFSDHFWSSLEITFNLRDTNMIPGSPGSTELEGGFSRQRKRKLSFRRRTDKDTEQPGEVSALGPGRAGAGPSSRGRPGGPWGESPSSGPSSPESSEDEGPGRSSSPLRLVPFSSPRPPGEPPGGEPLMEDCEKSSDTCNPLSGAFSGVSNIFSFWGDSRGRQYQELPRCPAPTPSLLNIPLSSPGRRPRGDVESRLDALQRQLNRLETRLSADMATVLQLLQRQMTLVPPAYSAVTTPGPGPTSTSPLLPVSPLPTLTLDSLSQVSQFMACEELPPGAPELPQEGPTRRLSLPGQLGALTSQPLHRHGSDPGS
PCSK9, sequence (Q8NBP7 with tags, fused parts or gaps V474I/G670E): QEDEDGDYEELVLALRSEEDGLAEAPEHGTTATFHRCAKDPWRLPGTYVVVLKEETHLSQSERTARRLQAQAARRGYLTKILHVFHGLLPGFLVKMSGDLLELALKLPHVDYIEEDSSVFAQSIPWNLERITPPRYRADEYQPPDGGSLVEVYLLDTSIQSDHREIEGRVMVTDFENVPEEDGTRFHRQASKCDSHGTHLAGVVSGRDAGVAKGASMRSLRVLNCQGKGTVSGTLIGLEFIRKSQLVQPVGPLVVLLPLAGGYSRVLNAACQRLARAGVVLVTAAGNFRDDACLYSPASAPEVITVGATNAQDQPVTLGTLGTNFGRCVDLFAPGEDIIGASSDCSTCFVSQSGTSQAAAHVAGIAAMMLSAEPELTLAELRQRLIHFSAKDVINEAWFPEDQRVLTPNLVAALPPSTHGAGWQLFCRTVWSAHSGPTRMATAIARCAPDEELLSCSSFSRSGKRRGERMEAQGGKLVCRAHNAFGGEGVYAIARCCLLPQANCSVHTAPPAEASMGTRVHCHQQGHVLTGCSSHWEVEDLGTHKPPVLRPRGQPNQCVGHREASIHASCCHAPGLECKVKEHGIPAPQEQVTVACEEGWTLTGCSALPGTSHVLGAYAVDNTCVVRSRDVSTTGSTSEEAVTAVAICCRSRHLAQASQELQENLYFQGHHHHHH

SMILES | IC50 [1] | IC50 [2] | IC50 [3]
Cc1cnc(NCC(CCO)CNc2ccc(-n3cccc(C)c3=O)cn2)nn1 (racemic) [Example 315, rac-6′-((4-Hydroxy-2-(((6-methyl-1,2,4-triazin-3-yl)amino)methyl)butyl)amino)-3-methyl-2H-[1,3′-bipyridin]-2-one] | > 40.1 µM | 1.29 µM | > 10 µM
Cc1ccc(=O)n(-c2ccc(NCC(CCO)CNc3ncc(C)nn3)nc2)c1 (racemic) [Example 316, rac-6′-((4-Hydroxy-2-(((6-methyl-1,2,4-triazin-3-yl)amino)methyl)butyl)amino)-5-methyl-2H-[1,3′-bipyridin]-2-one] | > 40 µM | 7.43 µM | 
Cc1cnc(NCC(CCO)CNc2ccc(-n3c(=O)ccc4ccccc43)cn2)nn1 (racemic) [Example 318, rac-1-(6-((4-Hydroxy-2-(((6-methyl-1,2,4-triazin-3-yl)amino)methyl)butyl)amino)pyridin-3-yl)quinolin-2(1H)-one] | > 40 µM | 0.284 µM | 
Cc1cnc(NCC(CCO)CNc2ccc(-n3c(=O)n(C)c4cccnc43)cn2)nn1 (racemic) [Example 319, rac-3-(6-((4-Hydroxy-2-(((6-methyl-1,2,4-triazin-3-yl)amino)methyl)butyl)amino)pyridin-3-yl)-1-methyl-1,3-dihydro-2H-imidazo[4,5-b]pyridin-2-one] | > 40 µM | 0.705 µM | 
Cc1cnc(NCC(CCO)CNc2ccc(-n3c(=O)ccc4cccnc43)cn2)nn1 (racemic) [Example 320, rac-1-(6-((4-Hydroxy-2-(((6-methyl-1,2,4-triazin-3-yl)amino)methyl)butyl)amino)pyridin-3-yl)-1,8-naphthyridin-2(1H)-one] | > 40 µM | 0.559 µM | 
Cc1cnc(NCC(CCO)CNc2ccc(-n3c(=O)n(C)c4ccccc43)cn2)nn1 (racemic) [Example 321, rac-1-(6-((4-Hydroxy-2-(((6-methyl-1,2,4-triazin-3-yl)amino)methyl)butyl)amino)pyridin-3-yl)-3-methyl-1,3-dihydro-2H-benzo[d]imidazol-2-one] | > 40 µM | 0.297 µM | 
CCOC(=O)c1cnc(N[C@H]2CC[C@H](Nc3ccc(-n4ccccc4=O)cn3)C2)nn1 [Compound 10, Ethyl 3-(((1S,3S)-3-((2-oxo-2H-[1,3′-bipyridin]-6′-yl)amino)cyclopentyl)amino)-1,2,4-triazine-6-carboxylate] | > 40 µM | 0.797 µM | > 10 µM
Fc1cccc(F)c1-c1ccc(N[C@H]2CC[C@H](Nc3ncc(C4CC4)nn3)C2)nc1 [Example 53] | 3.4 µM |  | > 10 µM
COc1cccc(F)c1-c1ccc(N[C@H]2CC[C@H](Nc3ncc(C4CC4)nn3)C2)nc1 [Example 54] | 4.3 µM |  | > 10 µM
O=c1cccnn1-c1cnc(N[C@H]2CC[C@H](Nc3ncc(C4CC4)nn3)C2)cn1 [Example 59, 2-(5-(((1S,3S)-3-((6-Cyclopropyl-1,2,4-triazin-3-yl)amino)cyclopentyl)amino)pyrazin-2-yl)pyridazin-3(2H)-one] | > 40 µM | 0.045 µM | > 10 µM
Cn1cccc(-c2ccc(N[C@H]3CC[C@H](Nc4ncc(C5CC5)nn4)C3)nc2)c1=O [Example 60, 6′-(((1S,3S)-3-((6-Cyclopropyl-1,2,4-triazin-3-yl)amino)cyclopentyl)amino)-1-methyl-[3,3′-bipyridin]-2(1H)-one] | 21 µM | 0.0091 µM | > 10 µM
N#Cc1ccc(F)c(-c2ccc(N[C@H]3CC[C@H](Nc4ncc(C5CC5)nn4)C3)nc2)n1 [Example 61, 6′-(((1S,3S)-3-((6-Cyclopropyl-1,2,4-triazin-3-yl)amino)cyclopentyl)amino)-3-fluoro-[2,3′-bipyridine]-6-carbonitrile] | 5.6 µM | 0.184 µM | > 10 µM
NC(=O)CNC(=O)c1cnc(N[C@H]2CC[C@H](Nc3ccc(-n4ccccc4=O)cn3)C2)nn1 [Example 68, N-(2-Amino-2-oxoethyl)-3-(((1S,3S)-3-((2-oxo-2H-[1,3′-bipyridin]-6′-yl)amino)cyclopentyl)amino)-1,2,4-triazine-6-carboxamide] | > 40 µM | 0.168 µM | > 10 µM
Cn1cccc(-c2cnc(N[C@H]3CC[C@H](Nc4ncc(C5CC5)nn4)C3)cn2)c1=O [Example 113, 3-(5-(((1S,3S)-3-((6-Cyclopropyl-1,2,4-triazin-3-yl)amino)cyclopentyl)amino)pyrazin-2-yl)-1-methylpyridin-2(1H)-one] | > 40 µM | 0.041 µM | > 10 µM
Cn1cccc(-c2cnc(N[C@H]3CC[C@H](Nc4ncc(C5CC5)nn4)C3)nc2)c1=O [Example 115, 3-(2-(((1S,3S)-3-((6-Cyclopropyl-1,2,4-triazin-3-yl)amino)cyclopentyl)amino)pyrimidin-5-yl)-1-methylpyridin-2(1H)-one] | > 40 µM | 0.017 µM | > 10 µM
O=c1cccnn1-c1cnc(N[C@H]2CC[C@H](Nc3ncc(C4CC4)nn3)C2)nc1 [Example 119, 2-(2-(((1S,3S)-3-((6-Cyclopropyl-1,2,4-triazin-3-yl)amino)cyclopentyl)amino)pyrimidin-5-yl)pyridazin-3(2H)-one] | > 40 µM | 0.073 µM | > 10 µM
O=c1ccncn1-c1cnc(N[C@H]2CC[C@H](Nc3ncc(C4CC4)nn3)C2)nc1 [Example 120, 2′-(((1S,3S)-3-((6-Cyclopropyl-1,2,4-triazin-3-yl)amino)cyclopentyl)amino)-6H-[1,5′-bipyrimidin]-6-one] | > 40.1 µM | 0.143 µM | > 10 µM
CN(CCO)C(=O)c1cnc(N[C@H]2CC[C@H](Nc3ccc(-n4ccccc4=O)cn3)C2)nn1 [Example 151, N-(2-Hydroxyethyl)-N-methyl-3-(((1S,3S)-3-((2-oxo-2H-[1,3′-bipyridin]-6′-yl)amino)cyclopentyl)amino)-1,2,4-triazine-6-carboxamide] | > 40.1 µM | 2.25 µM | > 10 µM
C#CCN(C)C(=O)c1cnc(N[C@H]2CC[C@H](Nc3ccc(-n4ccccc4=O)cn3)C2)nn1 [Example 152, N-Methyl-3-(((1S,3S)-3-((2-oxo-2H-[1,3′-bipyridin]-6′-yl)amino)cyclopentyl)amino)-N-(prop-2-yn-1-yl)-1,2,4-triazine-6-carboxamide] | > 40.1 µM | 0.244 µM | > 10 µM
COc1c(C(=O)O)ccc(F)c1-c1ccc(N[C@H]2CC[C@H](Nc3ncc(C4CC4)nn3)C2)nc1 [Example 167, 3-(6-(((1S,3S)-3-((6-Cyclopropyl-1,2,4-triazin-3-yl)amino)cyclopentyl)amino)pyridin-3-yl)-4-fluoro-2-methoxybenzoic acid] | > 40.1 µM |  | > 10 µM
COc1c(C#N)ccc(F)c1-c1ccc(N[C@H]2CC[C@H](Nc3ncc(C4CC4)nn3)C2)nc1 [Example 168, 3-(6-(((1S,3S)-3-((6-Cyclopropyl-1,2,4-triazin-3-yl)amino)cyclopentyl)amino)pyridin-3-yl)-4-fluoro-2-methoxybenzonitrile] | 3.1 µM |  | > 10 µM
COc1c(-c2nnn[nH]2)ccc(F)c1-c1ccc(N[C@H]2CC[C@H](Nc3ncc(C4CC4)nn3)C2)nc1 [Example 169, (1S,3S)—N^1-(6-Cyclopropyl-1,2,4-triazin-3-yl)-N^3-(5-(6-fluoro-2-methoxy-3-(1H-tetrazol-5-yl)phenyl)pyridin-2-yl)cyclopentane-1,3-diamine] | > 40.1 µM | 0.027 µM | 0.31 µM
